Experimental data as given in paper PMC4089486, “Structural and biochemical analyses of alanine racemase from the multidrug-resistant Clostridium difficile strain 630” (Acta Crystallographica Section D: Biological Crystallography, 2014).

Tests used:
[1] = target: T1, CdAlr (C. difficile alanine racemase; CdAlrWT) (Clostridioides difficile, UniProt Q180W0); assay: X-ray co-crystal structure, […] A; format: binding; settings: covalent; adduct with PLP (DCS) in the active site; 100 mM cycloserine
T1 construct: gene alr2; monomer 43306 Da, homodimer; WT preparation partly cleaved at position 271 (fragments 1-271 and 272-382)

[2] = target: T1, CdAlr (C. difficile alanine racemase; CdAlrWT); assay: X-ray crystal structure, […] A; format: binding; settings: covalent; internal aldimine with Lys39

T1 sequence (Q180W0 entry or part of it): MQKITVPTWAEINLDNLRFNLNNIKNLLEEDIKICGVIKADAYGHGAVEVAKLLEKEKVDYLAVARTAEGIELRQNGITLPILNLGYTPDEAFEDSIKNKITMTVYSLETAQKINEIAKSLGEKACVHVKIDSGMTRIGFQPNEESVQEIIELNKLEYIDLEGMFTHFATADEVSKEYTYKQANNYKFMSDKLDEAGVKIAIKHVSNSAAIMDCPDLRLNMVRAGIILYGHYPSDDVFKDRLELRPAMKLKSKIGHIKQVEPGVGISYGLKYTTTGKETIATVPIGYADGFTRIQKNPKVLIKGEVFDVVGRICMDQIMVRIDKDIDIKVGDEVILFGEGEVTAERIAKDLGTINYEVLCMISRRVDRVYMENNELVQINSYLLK

SMILES	X-ray co-crystal structure, 2.26 A [1]	X-ray crystal structure, 2.10 A [2]
N[C@@H]1CONC1=O [cycloserine]	In the CdAlrcycloserine structure, cycloserine forms a covalent adduct with PLP	–
Cc1ncc(COP(=O)(O)O)c(C=O)c1O [PLP]	–	Two structures (CdAlrK271T and CdAlrPLP) contain the cofactor PLP
